Source: patent US20110207783A1, “RENIN INHIBITORS” (priority 2007, published 2011)

Assays:
[1] = biological target: T1, Renin (Homo sapiens, UniProt P00797); experiment: Renin QFRET; type: biochemical
T1 sequence (P00797 67-406): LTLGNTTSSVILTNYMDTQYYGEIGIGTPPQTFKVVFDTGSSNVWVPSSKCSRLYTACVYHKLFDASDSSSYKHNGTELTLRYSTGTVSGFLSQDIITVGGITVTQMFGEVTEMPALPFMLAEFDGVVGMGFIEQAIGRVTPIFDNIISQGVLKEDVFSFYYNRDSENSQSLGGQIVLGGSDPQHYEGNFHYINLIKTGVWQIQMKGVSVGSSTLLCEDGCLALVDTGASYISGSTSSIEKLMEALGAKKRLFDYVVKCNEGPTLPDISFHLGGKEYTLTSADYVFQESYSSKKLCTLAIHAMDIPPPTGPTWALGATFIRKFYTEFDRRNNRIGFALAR

[2] = biological target: T2, renin in human plasma (Homo sapiens, UniProt P00797); experiment: Inhibition of renin in human plasma; type: biochemical
T2 construct: from tissue; host or cells: human plasma from 10 normal donors, spiked with human recombinant renin (3 pM)
T2 sequence (P00797 67-406): T1 sequence (P00797 67-406)
Protocol: The enzymatic in vitro assay was performed in 384-well polypropylene plates (Nunc). The assay buffer consisted of PBS (Gibco BRL) including 1 mM EDTA and 0.1% BSA. The reaction mixture was composed of 80 μL per well of human plasma, enzyme, Ang I-antibodies mix and 5 μL of renin inhibitors in DMSO. The human plasma mix was premixed at 4° C. and consists of • human plasma from 10 normal donors • human recombinant renin (3 pM) • Ang I-antibodies. The mixtures were then incubated at 37° C. for 2 h.
To determine the enzymatic activity and its inhibition, the accumulated Ang I was detected by an enzyme immunoassay (EIA) in 384-well plates (Nunc). 10 μL of the reaction mixture or standards were transferred to immuno plates which were previously coated with a covalent complex of Ang I and bovine serum albumin (Ang I-BSA). 70 μL assay buffer were added and the plates were incubated at 4° C. overnight. The plates were washed 3 times with PBS including 0.01% Tween 20, and then incubated for 2 h at RT with an anti rabbit-peroxidase coupled antibody (WA 934, Amersham). […]

With `COCCCc1ccc(Cl)c(CN(C(=O)C(CN)Cc2cccnc2N)C2CC2)c1` (centres unmarked) [Example 5, 3-amino-2-[(2-amino-3-pyridinyl)methyl]-N-({2-chloro-5-[3-(methyloxy)propyl]phenyl}methyl)-N-cyclopropylpropanamide] the IC50 [1] was 0.017 µM and the IC50 [2] was 0.24 µM.
